The results in this text go back to patent US20110039893A1, “GSK-3BETA INHIBITOR” (Takeda Pharmaceutical Company Limited, priority 2006, published 2011).

The target of the experiment is T1, recombinant GSK-3β enzyme (Homo sapiens, UniProt P49841).
T1 construct: FLAG (N); made in house; host or cells: Sf-21 insect cells, recombinant baculovirus (pFASTBAC1, BAC-TO-BAC)
Briefly: GSK-3β inhibitory activity evaluation (Kinase Glo luminescence, recombinant enzyme). Format: biochemical. The following applies: recombinant human GSK-3β 100 ng, glycogen synthase-derived substrate peptide, 2.5 μM ATP solution, 30 min room temperature. The procedure: Human GSK-3β gene was cloned by PCR using human brain cDNA (Clontech; trade name: QUICK-Clone cDNA) as a template and a primer set (GSK3β-U: 5′-[…] CTT-3′ (SEQ ID NO: 1) and GSK3β-L: 5′-[…]-3′ (SEQ ID NO: 2)) prepared by reference to the base sequence of GSK-3β gene registered under an accession No. NM_002093 in the GenBank.
PCR was performed according to the protocol attached to KOD plus DNA polymerase (TOYOBO CO., LTD.). The obtained PCR product was subjected to agarose gel (1%) electrophoresis, and DNA fragment (1.2 kb) containing GSK-3β gene was recovered from the gel, and digested with restriction enzymes EcoR I and Sal I. DNA after treatment with restriction enzymes was subjected to agarose gel (1%) electrophoresis, and the obtained DNA fragment was recovered, and ligated to plasmid pFASTBAC1 (Invitrogen) digested with restriction enzymes EcoR I and Sal I to give expression plasmid pFB-GSK3β. The base sequence of the inserted fragment was confirmed to match the object sequence. Using BAC-TO-BAC Baculovirus Expression System (Invitrogen), virus stock BAC-GSK3β of recombinant Baculovirus was prepared.
Sf-21 cells (Invitrogen) were inoculated to 150 ml Sf-900 II SEM medium (Invitrogen) containing 10% fetal bovine serum to 1×10^6 cells/ml and cultured at 27° C. for 24 hr. To the obtained culture medium was added the virus stock BAC-GSK3β of recombinant Baculovirus obtained above by 150 μl each, and the cells were further cultured for 60 hr. The culture medium was centrifuged (3000 rpm, 10 min) to separate the cells, and the cells were washed once with PBS. The cells were suspended in 10 ml of cell lysis buffer (25 mM HEPES (pH 7.5), 1% Triton X, 130 mM sodium chloride, 1 mM EDTA, 1 mM Dithiothreitol, 25 mM β-glycerophosphate, Protease inhibitor Complete (Boehringer), 1 mM sodium orthovanadate), treated 4 times in a homogenizer (POLYTRON) at 20000 rpm, 30 sec to disrupt the cells. The cell disrupt solution was centrifuged (40000 rpm, 45 min), and GSK-3β was purified from the obtained supernatant using Anti-FLAG M2 Affinity Gel (Sigma Ltd.).
To 37.5 μl of a reaction solution (25 mM HEPES (pH 7.5), 10 mM magnesium acetate, 1 mM DTT, 0.01% bovine serum albumin (Wako Pure Chemical Industries, Ltd.)) containing recombinant GSK-3β enzyme (100 ng) obtained above and substrate peptide ([…]pSEDEEE (SEQ ID NO: 3), pS is phosphorylated serine) (100 ng) derived from glycogen synthase was added a test compound (2.5 μl) dissolved in DMSO, and the mixture was incubated at room temperature for 5 min. To the obtained mixture was added ATP solution (2.5 μM ATP, 10 μl), and the mixture was reacted at room temperature for 30 min. After the reaction, the reaction was quenched by adding 50 μL of Kinase Glo Reagent (Promega) to the reaction solution. After reaction at room temperature for 10 min, the luminescence amount was measured using an ARVO multilabel counter (PerkinElmer Life Sciences). The concentration of the test compound necessary for inhibiting the luminescence amount by 50% (IC50 value) was calculated by PRISM 3.0 (Graphpad software).

T1 sequence (P49841 whole entry): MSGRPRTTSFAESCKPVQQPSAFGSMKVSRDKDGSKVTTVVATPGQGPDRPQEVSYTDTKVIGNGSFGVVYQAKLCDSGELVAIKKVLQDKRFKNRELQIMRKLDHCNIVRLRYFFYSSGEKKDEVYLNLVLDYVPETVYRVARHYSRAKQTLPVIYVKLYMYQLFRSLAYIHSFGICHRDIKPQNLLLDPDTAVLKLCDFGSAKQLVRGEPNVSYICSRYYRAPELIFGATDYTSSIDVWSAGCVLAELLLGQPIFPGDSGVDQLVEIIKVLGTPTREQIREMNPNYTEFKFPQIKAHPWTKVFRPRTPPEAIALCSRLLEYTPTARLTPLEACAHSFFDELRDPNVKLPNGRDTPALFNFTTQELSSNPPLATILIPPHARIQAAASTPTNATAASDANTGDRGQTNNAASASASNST

On to `O=C(CCc1ccccn1)Nc1cc(N2CC(c3ccccc3)CC2=O)ccn1` (centres unmarked) [Example 75, N-(4-(2-oxo-4-phenylpyrrolidin-1-yl)pyridin-2-yl)-3-(pyridin-2-yl)propanamide], for which the half-inhibitory concentration (IC50) turned out to be 0.22 µM.
Regarding `O=C(NCc1cccnc1)Nc1cc(N2CC(c3ccccc3)CC2=O)ccn1` (centres unmarked) [Example 7, N-(4-(2-oxo-4-phenylpyrrolidin-1-yl)pyridin-2-yl)-N′-(pyridin-3-ylmethyl)urea], the IC50 came out at 0.19 µM.
